Results reported in patent US9982026B2, “Compositions and methods for assessing and treating adrenal diseases and disorders” (YALE UNIVERSITY, priority 2011, dated 2018).
Numbering of substitutions follows the chain as printed. Entries after “also recorded” stand apart in the source; their conditions may differ.

Assays:
[1] = target: T1, KCNJ3/KCNJ5G151R in 293T cells (Homo sapiens, UniProt P48544+P48549, G151R); test: Whole-cell patch clamp of KCNJ3/KCNJ5 heterotetramers, Ba2+ block; type: cell-based; settings: 1 mM BaCl2 in extracellular solution
T1 construct: #SC118769 (KCNJ3); host or cells: 293T
T1 sequence (P48544 1-419 G151R): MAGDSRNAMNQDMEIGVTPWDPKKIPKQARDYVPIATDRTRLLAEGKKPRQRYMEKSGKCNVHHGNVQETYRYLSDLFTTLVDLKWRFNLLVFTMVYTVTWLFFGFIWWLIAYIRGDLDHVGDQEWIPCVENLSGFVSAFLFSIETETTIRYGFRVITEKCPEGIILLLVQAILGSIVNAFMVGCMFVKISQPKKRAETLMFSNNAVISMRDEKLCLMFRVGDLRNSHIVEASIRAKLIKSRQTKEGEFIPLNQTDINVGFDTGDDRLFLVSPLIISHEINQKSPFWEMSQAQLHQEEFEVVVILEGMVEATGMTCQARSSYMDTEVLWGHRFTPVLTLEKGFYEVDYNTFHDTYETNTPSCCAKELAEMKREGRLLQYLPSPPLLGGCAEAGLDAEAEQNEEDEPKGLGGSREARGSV
T1 sequence (P48549 1-501): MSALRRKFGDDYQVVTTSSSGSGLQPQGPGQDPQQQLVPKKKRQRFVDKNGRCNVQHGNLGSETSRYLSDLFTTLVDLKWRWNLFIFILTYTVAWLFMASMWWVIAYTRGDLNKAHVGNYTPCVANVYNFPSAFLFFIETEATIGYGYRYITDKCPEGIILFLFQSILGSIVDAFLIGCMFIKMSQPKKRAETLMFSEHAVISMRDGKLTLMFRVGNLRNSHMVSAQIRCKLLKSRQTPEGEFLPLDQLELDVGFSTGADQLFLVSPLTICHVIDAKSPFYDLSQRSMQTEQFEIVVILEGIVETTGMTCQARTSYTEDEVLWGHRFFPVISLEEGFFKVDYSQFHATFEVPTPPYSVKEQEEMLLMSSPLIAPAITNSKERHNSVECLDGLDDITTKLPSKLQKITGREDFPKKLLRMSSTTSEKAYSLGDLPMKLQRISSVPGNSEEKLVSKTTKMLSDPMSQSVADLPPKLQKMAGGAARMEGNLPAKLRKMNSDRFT
Procedure: (§1) FIG. 3A depicts the results of representative whole-cell recordings of 293T cells transfected with empty vector or KCNJ3 plus WT or mutant KCNJ5. […] Middle row: 1 mM BaCl2 was added. Bottom row: 140 mM choline chloride was substituted for extracellular NaCl. FIG. 3B depicts the current-voltage relationships from cells expressing indicated constructs (n=3 to 7 for each construct). Reversal potentials in control conditions are indicated. […] FIG. 3C depicts that the K+:Na+ permeability ratios calculated from the reversal potentials show loss of ion selectivity of the mutant channels. Data in FIGS. 3B and 3C are shown as mean±SEM.
(§2) Empty vector was used as a control. Cells were examined one day after transient transfection.
(§3) 1 mM BaCl2 was used to block Kir channels. […] All data are shown as mean±SEM.

[2] = target: T2, KCNJ3/KCNJ5WT in 293T cells (Homo sapiens, UniProt P48544+P48549); test: as above; type: cell-based; settings: 1 mM BaCl2 in extracellular solution; listed as Ba2+
T2 construct: #SC118769 (KCNJ3); host or cells: 293T
T2 sequence (P48544 1-419): T1 sequence (P48544 1-419 G151R) with R151G
T2 sequence (P48549 1-501): T1 sequence (P48549 1-501)
Procedure: as §1, §2, §3

[3] = test system: KCNJ3 plus mutant KCNJ5 in 293T cells; test: as above; type: cell-based, human; settings: 1 mM BaCl2 in extracellular solution; mutant channels G151R, L168R, T158A
Procedure: as §1, §2, §3

[4] = target: T3, KCNJ5 WT homotetramers in 293T cells (Homo sapiens, UniProt P48544); test: Whole-cell patch clamp of KCNJ5 homotetramers, Ba2+ block; type: cell-based; settings: 1 mM BaCl2 in extracellular fluid, symmetric high K+ solutions
T3 construct: host or cells: 293T
T3 sequence (P48544 1-419): T1 sequence (P48544 1-419 G151R) with R151G
Procedure: Because of low current amplitude of homotetrameric channels, currents were measured under symmetrical high Na+ or high K+ conditions, which increases current amplitude (Owen et al., 1999, Exp Physiol 84:471-488; Andreoli, et al., Eds., Molecular Biology of Membrane Transport Disorders (Plenum Press, New York, ed. 2, 1996), chap. 5) (FIGS. 13A-13D); reversal potentials and permeability ratios were determined using physiological solutions (FIGS. 13E, 13F). (FIG. 13A) Representative whole-cell recordings showing K+ and Na+ currents in 293T cells transfected with KCNJ5, KCNJ5G151R, KCNJ5L168R, and KCNJ5T158A. […] (FIGS. 13B, 13C) Current-voltage relationships from cells expressing the indicated constructs with symmetric high K+ or high Na+ solutions as in FIG. 13A. […] Relative permeabilities of K+:Na+ were determined in physiologic solutions as described in FIG. 13E. (FIG. 13E) Reversal potential of 293T cells transfected with WT or mutant KCNJ5 using physiological solutions. […] The reversal potential for the homotetramers was determined by a ramp protocol ranging from −100 to +100 mV after forming a high resistance seal. […]
To analyze homomeric wild-type or mutant KCNJ5 currents, 1 μg of cDNA was transfected. […] For each construct, currents were measured in two conditions. […] The reversal potential was determined using a ramp protocol ranging from −100 to +100 mV after forming a high resistance seal. […]

[5] = target: KCNJ3/KCNJ5WT cotransfected with the dopamine D2 receptor in 293T cells (Homo sapiens, UniProt P14416); settings: 1 μM dopamine, current amplitudes at −100 mV, before vs after addition, n=4
Sequence of KCNJ3/KCNJ5WT cotransfected with the dopamine D2 receptor in 293T cells (P14416 whole entry): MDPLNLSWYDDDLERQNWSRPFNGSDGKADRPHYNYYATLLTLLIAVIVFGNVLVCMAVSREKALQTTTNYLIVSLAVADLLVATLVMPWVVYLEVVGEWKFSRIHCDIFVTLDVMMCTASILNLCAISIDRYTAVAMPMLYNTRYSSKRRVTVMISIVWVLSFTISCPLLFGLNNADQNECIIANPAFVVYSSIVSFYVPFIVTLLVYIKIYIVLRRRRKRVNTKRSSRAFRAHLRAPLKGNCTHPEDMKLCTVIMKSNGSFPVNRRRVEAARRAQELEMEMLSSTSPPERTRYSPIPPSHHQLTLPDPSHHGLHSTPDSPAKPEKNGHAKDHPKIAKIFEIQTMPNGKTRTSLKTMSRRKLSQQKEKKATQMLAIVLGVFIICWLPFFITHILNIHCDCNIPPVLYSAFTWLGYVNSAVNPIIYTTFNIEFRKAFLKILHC
Procedure: Representative whole-cell recordings of 293T cells cotransfected with KCNJ3/KCNJ5WT and the dopamine D2 receptor are shown. The pipette holding potential was 0 mV before clamping, and the cell was clamped from −100 to 60 mV with 20 mV increments before (left) and after (right) addition of 1 μM dopamine. The extracellular solution contained 140 mM NaCl, 5 mM KCl, 1.8 mM MgCl2, 1.8 mM CaCl2, and 10 mM HEPES, pH 7.4, while the intracellular solution contained 140 mM KCl, 4 mM MgCl2, 1 mM CaCl2, 1 mM EGTA, and 5 mM HEPES, pH 7.4. […] (FIG. 12B) Mean±SEM of current amplitudes measured at −100 mV before (control) and after addition of dopamine as in FIG. 12A (n=4).
293T cells were transfected with plasmid DNA using TransIT®-293 Transfection Reagent (Mirus) according to the manufacturer's instructions. Empty vector was used as a control. Cells were examined one day after transient transfection. Standard perforated whole-cell patch clamp recordings were performed on GFP-positive cells using an Axopatch 200A (Axon Instruments) amplifier. […]
Cells were cotransfected with 0.8 μg wild-type or mutant KCNJ5 and 0.5 μg KCNJ3 cDNA. […] Endogenous currents of 293T cells transfected with empty vector were measured from −100 to 60 mV. […] Data were analyzed by a combination of Axon Clampfit9.2 (Molecular Devices) and SigmaPlot (Jandel Scientific) programs. Data from 3-7 cells were analyzed for each construct. […]

SMILES | inhibition of current by Ba2+ [1] | inhibition of current by Ba2+ [2] | inhibition of current by Ba2+ [3] | inhibition of channel activity [4] | increase of current [5] [%]
[Ba+2].[Cl-].[Cl-] [BaCl2] | loss of inhibition | inhibited; also recorded: inhibits the WT channel | variable inhibition | inhibited WT channel activity | –
Cl.NCCc1ccc(O)c(O)c1 [Dopamine, dopamine hydrochloride] | – | – | – | – | ~50
